Results: patent publication US4374149A, “α-{[(Arylalkyl)amino]alkyl}-4-hydroxy-3-(lower-alkylsul finyl)benzenemethanols” (Sterling Drug Inc., priority 1978, dated 1983)

Legend:
[1] = tested on: systolic blood pressure; assay: Antihypertensive activity, reduction in systolic blood pressure, single oral medication, unanesthetized spontaneous hypertensive rat; assay type: in vivo; settings: P.O., single dose, unanesthetized SH rat
Description: Antihypertensive activity was determined on the basis of the observed reduction in systolic blood pressure measured according to the method of H. Kersten et al., J. Lab. and Clin. Med. 32, 1090 (1947) following a single oral medication in the unanesthetized spontaneous hypertensive rat described by Okamato et al., Japan Circulation J. 27, 282 (1963).
^a AHD40 = single oral dose required to induce a 40 mm. average

[2] = tested on: blood pressure; assay: Antihypertensive activity, sustained lowering of blood pressure, repeated oral medication, unanesthetized trained renal hypertensive dog; assay type: in vivo
Description: Antihypertensive activity was also judged on the basis of sustained reduction of blood pressure observed in the unanesthetized trained renal hypertensive dog following repeated oral medication according to the procedure described by Lape et al., Arch.
^b MED10 = minimum repeated oral daily dose required to effect a

[3] = tested on: β-adrenergic; assay: β-adrenergic blocking activity, inhibition of isoproterenol-elicited heart rate increase in pentobarbitalized dog; assay type: in vivo; settings: i.v.
Description: The β-adrenergic blocking activity was determined in the pentobarbitalized dog as judged by the ability of the test compound to inhibit the elevation in heart rate elicited by a 0.5 mcg./kg. i.v. injection of isoproterenol.
^e AED50 = approximate intravenous dose required to cause 50%

[4] = tested on: isolated cat atria; assay: Cardiotonic test procedure I, isolated cat atria; settings: for Increase in right atrial force / Increase in right atrial rate: in vitro
Description: The efficacy of this compound was judged, in vitro, on the basis of percent increase in contractile force in isolated cat atria and papillary muscle and, in vitro, on the basis of percent increase in cardiac contractile force in the intact anesthetized dog. Male cats weighing from 0.8 to 1.5 kg. were anesthetized with α-chloralose (80 mg./kg. i.p.). The chest was opened, the heart excised and the two atria dissected. A silk suture was tied to each of two opposite sides of the right atrium. One side of the atrium was tied to a glass rod and then mounted in a 50 ml. organ bath filled with Tyrode's solution. […] The transducer was then connected to a Grass polygraph and the force and rate of atrial contraction was recorded continuously. The left atrium was treated similarly using silver wire instead of silk sutures. The silver wire also served as a stimulating electrode. Both atria were mounted in the same bath. The right atrium was beating spontaneously due to the presence of the sinoatrial node, while the left atrium was stimulated electrically at a rate of 3 beats/sec. by suprathreshold rectangular pulses of 5 millisecond duration. The Tyrode's solution bathing the atria was of the following composition (in mM): NaCl 136.87, KCl 5.36, NaH2 PO4 0.41, CaCl2 1.80, MgCl2 6H2 O 1.05, NaHCO3 11.90, glucose 5.55 and EDTA 0.04. […] The preparation was left to equilibrate for one hour before any drug was added. The bathing fluid was changed 3 to 4 times during the equilibration time. At the end of equilibration period, the drug dissolved in a vehicle or the vehicle alone was added to the tissue bath and the full response recorded. The vehicle used was Tyrode' s solution to which, if required, sufficient acid was added to cause solution of the drug. […] Generally, a dose response study of at least 3 doses was done in the same preparation.

[5] = tested on: papillary muscle; assay: Cardiotonic test procedure IB, isolated cat papillary muscle; settings: in vitro
Description: The efficacy of this compound was judged, in vitro, on the basis of percent increase in contractile force in isolated cat atria and papillary muscle and, in vitro, on the basis of percent increase in cardiac contractile force in the intact anesthetized dog. Male cats 0.8 to 1.5 kg. were anethetized with α-chloralose (80 mg./kg. i.p.). The chest was opened and the heart excised. The heart was dipped and shaken in Tyrode's solution for the removal of blood from the cavities. The right ventricle was then slit open and the small and thin (about 1 mm. in diameter and 4 to 7 mm. in length) papillary muscles were dissected out. A silver wire was attached to each of the two ends of the papillary muscle. The ventricular end was attached to a platinum electrode and mounted in a tissue bath containing Tyrode's solution described above. The silver wire on the valvular end of the muscle was attached to a force displacement transducer for the measurement of the force and rate of muscle contraction. The muscle was stimulated at a rate of 3 beats/sec. by suprathreshold rectangular pulses of 5 millisecond duration. The rest of the procedure was continued as described above.

[6] = tested on: cardiac contractile force; assay: Cardiotonic test procedure II, intact anesthetized dog; assay type: in vivo, mongrel dogs
Description: The efficacy of this compound was judged, in vitro, on the basis of percent increase in contractile force in isolated cat atria and papillary muscle and, in vitro, on the basis of percent increase in cardiac contractile force in the intact anesthetized dog. The in vivo test procedure used is described as follows: Mongrel dogs of both sexes and varying in weight from 9 to 15 kg. were anesthetized with 30 mg./kg. pentobarbital sodium administered intravenously. The trachea was exposed and cannulated. The tracheal cannula was then attached to a Harvard respiratory pump using room air. The right femoral artery and vein were cannulated. […] The venous cannula was used for the intravenous administration of drugs. Pin electrodes were attached to the right forelimb and left hindlimb. The electrodes were then connected to a Grass polygraph for the continuous recording of the standard limb lead II electrocardiogram. A ventro-dorsal incision at the third inter-costal space was made, the ribs laterally retracted and the pericardium slit open to expose the myocardium. The base of the aorta was dissected and a flow probe was fitted around it. The flow probe was attached to a square wave electromagnetic flowmeter (Carolina Medical Electronics). The flowmeter was then connected to a Grass polygraph for the continuous recording of aortic blood flow. This flow was used as an index of cardiac output (actual cardiac output is aortic blood flow+coronary blood flow). Cardiac contractile force was measured by suturing a Walton-Brodie strain gauge to the wall of the right ventricle. At the end of the surgical procedure, the animal was left to rest and equilibrate for one hour with continuous recording of blood pressure, EKG, cardiac contractile force and aortic blood flow. After the equilibration period, the vehicle or the drug dissolved in the vehicle was administered by intravenous infusion (i.v. inf.), intravenous bolus (i.v. bol.) or intraduodenally (i.d.) and the response of all the parameters measured to drug administration was recorded continuously for different periods of times depending on the route of drug administration. When the route of administration was i.v. inf., the drug was administered until a peak effect was reached and infusion was then maintained for ten minutes. The above-described test systems were standardized using dopamine.

[7] = tested on: arrhythmia; assay: Antiarrhythmic activity (in words, test not specified); settings: in vivo
Description: The test procedures were carried out as follows.

What does the source list for `COc1ccc(CCC(C)NCC(=O)c2ccc(O)c([S+](C)[O-])c2)cc1.Cl` (stereo not shown) [Example 26B, 4'-hydroxy-2-[3-(4-methoxyphenyl)-1-methylpropyl]amino-3'-(methylsulfinyl)-acetophenone hydrochloride]?
Antihypertensive activity SH Rat AHD40 (single oral dose required to induce a 40 mm. average reduction in systolic blood pressure) [1]: ca. 40.0 mg./kg.; Renal Hypertensive Dog MED10 (minimum repeated oral daily dose for sustained lowering of blood pressure of 10% or greater) ([2]; administered once per day): > 20 mg/kg; Actual percentage reduction in blood pressure observed at the indicated dose ([2]; once per day, 20 mg./kg.): 0; Actual percentage inhibition of heart rate increase above control level observed at the indicated dose ([3]; 1.0 mg./kg.): 18%; Dog β-blockade AED50 (approximate intravenous dose for 50% inhibition of isoproterenol-elicited heart rate increase) ([3]; pentobarbitalized dog): > 1.0 mg/kg; Increase in right atrial force ([4]; 10 /ml.): 1%; Increase in right atrial rate ([4]; 10 /ml.): 0%; Increase in right atrial force ([4]; 30 /ml.): 5%; Increase in right atrial rate ([4]; 30 /ml.): 3%; Increase in right atrial force ([4]; 100 /ml.): 6%; Increase in right atrial rate ([4]; 100 /ml.): 8%; Cardiotonic activity (in words) ([4]; one or more of the cardiotonic test procedures): cardiotonic activity; Increase in papillary muscle force ([5]; 10 /ml.): 7%; Increase in papillary muscle force ([5]; 30 /ml.): 23%; Increase in papillary muscle force ([5]; 100 /ml.): 38%; Increase in cardiac contractile force ([6]; 1.0 mg./kg., first series): 22%; Increase in cardiac contractile force ([6]; 1.0 mg./kg., second, similar series): 4%; Increase in cardiac contractile force ([6]; 3.0 mg./kg., first series): 25%; Increase in cardiac contractile force ([6]; 3.0 mg./kg., second, similar series): 12%; Increase in cardiac contractile force ([6]; 10.0 mg./kg., first series): 59%; Increase in cardiac contractile force ([6]; 10.0 mg./kg., second, similar series): 50%; Antiarrhythmic activity (in words) [7]: antiarrhythmic activity
